Tests used:
[1] = test system: bone marrow-derived macrophages (BMDMs); assay: In vitro Aβ phagocytosis assay (CypHer5E-tagged Aβ oligomers, flow cytometry); format: cell-based, mouse; settings: SYK-deficient (Syk^fl/fl LysM^Cre) BMDMs; 10 μM Tideglusib 1 hour before 10 μM CypHer5E-tagged Aβ oligomers; read 24 hours later; vs vehicle
Experimental: Monomerization of Aβ (1-42) (641-15, California peptide) was achieved using a previously published protocol (Stine et al., 2011), using hexafluoroisopropanol (HFIP) (52517, Sigma-Aldrich). 5 mM monomeric Aβ samples were incubated for 24 hours at 4° C. in F12 media to make a 200 μM stock of oligomeric Aβ. Samples were then incubated with CypHer5E-NHS ester (PA15401, […]) diluted in 0.1 M sodium bicarbonate for 30 minutes covered and at room temperature. Following incubation, Biospin columns (7326227, Bio-Rad) were used to […] unbound dye. CypHer5E-tagged Aβ oligomers were stored at 4° C. prior to BMDM treatment. Bone marrow-derived macrophages (BMDMs) were isolated from the hindlimbs of WT and Syk^fl/fl LysM^Cre mice. Marrow-containing bones were sprayed with 70% ethanol before being placed in IMDM (Thermo Fisher, 12440-053) containing penicillin/streptomycin (P/S) (Thermo Fisher, 15140163). A 25-gauge needle was used to flush marrow from the bones using 20 ml of IMDM containing P/S. An 18-gauge needle was then used to triturate flushed bone marrow 5 times to make a single-cell suspension. Samples were spun down at 1500 rpm for 5 minutes at 4° C. […] 24 hours post Aβ treatment, BMDMs were then collected, and flow cytometry was used to assess CypHer5E fluorescence. […]

5xFAD mice = assay: Intrahippocampal injection, Aβ load in hippocampus by immunofluorescence; format: in vivo; settings: 2 μg pustulan intrahippocampal vs vehicle-injected hemisphere of the same mouse, 7 days post injection
Experimental: Floating brains sectioned stored in PBS+0.05% sodium azide were blocked with 2% donkey serum, 1% bovine serum albumin, 0.1% triton, 0.05% tween in PBS for 1 hour at room temperature before applying the primary antibody master mix diluted in this block overnight at 4° C. Samples were stained with anti-AB (D54D2, Cell Signaling, 1:300; or 6e10, BioLegend, 1:1000) to label plaques. To study microglial morphology and numbers, sections were stained with Iba1 (ab5076, Abcam, 1:300). To further characterize microglia, we labeled with Ki67-EF660 (SoIA15, Thermo Fisher, 1:100), anti-Clec7a (R1-8g7, Invivogen, 1:30), Tmem119 (ab209064, Abcam, 1:300), and anti-CD68 (FA-11, BioRad, 1:1000). […] Quantification of images were performed using Fiji software or Imaris software (9.5.1).
5xFAD and 5xFAD Syk^ΔMG mice were anesthetized before receiving a bilateral hippocampal injection of 2 μl of vehicle or 2 μg pustulan into the right and left hemisphere of the hippocampus (at +2 mm lateral, −2 mm posterior, and −2 mm ventral relative to the intersection of the coronal and sagittal suture (bregma) at a rate of 200 nl/min) using a stereotaxic frame (51730U, Stoelting) and nanoliter injector (NL2010MC2T, World Precision Instruments). […] Images were analyzed using Fiji software and Imaris software (9.5.1).

Row | Molecule | Aβ phagocytosis (CypHer5E fluorescence, percent CypHer5E+ CD11b^hi F4/80^hi cells) [1] | Aβ load in injected hippocampal hemisphere (D54D2 immunofluorescence) (5xFAD mice)
1 | O=c1sn(-c2cccc3ccccc23)c(=O)n1Cc1ccccc1 [Tideglusib] | significantly increased Aβ phagocytosis | 
2 | pustulan |  | decreased Aβ load
